Results on one substance are retold here after patent publication EP1336409B1 (priority 1995, dated 1997).

What is called pIC50 is −log10 of the IC50, conventionally taken in molar units.

This assay has as its system spinal pia-arachnoid membranes. Details: species or system Macaque nemestrina monkeys. The following applies: read-out: IC50, displacement of [125I]SNX-111 binding. (In general: Loss of bound radioactivity is the signal in a displacement assay; it reports binding, not function.)

pIC50: −log10 of the molar value.

With [Nle^12] SNX-111 [SNX-194], the pIC50 is 4.39.
